Columns and labels:
[1] = Plasma pharmacokinetics in NHP, 30 mg/kg oral for 7 days; type: in vivo; details: oral 30 mg/kg daily for 7 days, average male and female
Procedure: Naïve NHP were orally administered with 7 consecutive daily dose of Compound 14 at 30 mg/kg, n=4 per dose group, 2 male and 2 female. Compound formulation was prepared on the day of administration in 0.5% methyl cellulose (4000 cps) in water and animals were fed twice a day; water was available ad libitum. Plasma collected posted dose on Day 1 and Day 7 were analyzed using a non GLP LC/MS/MS bioanalytical method to evaluate the compound concentration. Brain samples were harvested 24 h after final dose. Lysates for different brain regions (hippocampus, frontal cortex, and cerebellum) were prepared in M-PER lysis buffer and diluted at total protein concentration of 0.4 mg/mL in 0.1× sample buffer (12-230 kDa detection module; Protein Simple). The anti-NEK7 rabbit mAb (Abcam #AB133514) was used at 1:100 and anti-β-actin rabbit mAb (CST #5125) was used at 1:500. Samples were probed for NEK7 and β-actin protein levels by JESS, and quantified relative to vehicle control.
In Table 10, concentration of Compound 14 in NHP plasma following administration via oral gavage after 7 days post dose at 30 mg/kg is reported. NHP received daily oral administration of 30 mg/kg of Compound 14 for 7 days, n=2.

IL-1β = IL-1β in human monocyte-derived macrophages, LPS/MSU stimulation; type: cell-based; details: 24 h pre-treatment, LPS + MSU 6 h, eight donors
Procedure: (§1) Human monocytes were enriched and isolated from a buffy coat of whole blood with a RosetteSep™ Human Monocyte Enrichment Cocktail (Cat.No. 15068, StemCell) and Ficoll-Plaque PLUS (Cat.No. H8889, Sigma). Monocytes were differentiated into macrophages by treatment with 100 ng/mL M-CSF for 6 days at 37° C., 5% CO2. Differentiated macrophages were seeded overnight (50,000 cells/well) in 100 μL of medium in a 96-well white-bottom plate at 37° C., 5% CO2. Cells were treated with a concentration range of MGD or the NLRP3 inhibitor selnoflast (Cat.No. HY-132831, MedChemExpress) for 24 h prior to stimulation with monosodium urate crystals (MSU). Macrophages were stimulated with […] lipopolysaccharide (LPS) and 0.2 mg/mL MSU for 6 h. Medium of stimulated macrophages were collected and assayed for caspase-1 activity directly (Promega G9951) as well as IL-1β (Promega W6010), according to manufacturer's instructions.
(§2) (a, b) Human monocyte-derived macrophages pre-treated with a dose-response of Compound 14 or selnoflast (NLRP3 inhibitor) for 24 h and stimulated with a combination of lipopolysaccharide (LPS) and monosodium urate crystals (MSU) for 6 h prior to supernatant collection. Monocytes were isolated from eight human donors. Caspase-1 (a) and IL-1β (b) in the supernatant are measured and data are expressed as percentage relative to mean values of DMSO conditions for each donor (technical triplicates). Means of eight donors are plotted and analyzed using a four-parameter logistic regression model.

Caspase-1 activity = Caspase-1 activity in human monocyte-derived macrophages, LPS/MSU stimulation; type: cell-based
Procedure: as §1, §2

[2] = Plasma concentration in NHP, multiple-dose study 5 mg/kg oral; type: in vivo, cynomolgus monkeys; details: both sexes, cynomolgus monkey
Procedure: Non-naïve male and female non-human primate (NHP) cynomolgus monkeys were orally administered with 5 consecutive daily doses of Compound 14 at 5 mg/kg, n=2 per dose group, 1 male and 1 female. Compound formulation was prepared on the day of administration in 0.5% methyl cellulose (4000 cps) in water and animals were fasted overnight. Plasma collected post dose were analyzed using a non GLP LC/MS/MS bioanalytical method to evaluate the compound concentration. Whole blood collected post dose were processed to PBMC and were analyzed using western blot method. Plasma pharmacokinetics and PMBC pharmacodynamics were assessed longitudinally throughout dosing and following dosing cessation.
In Table 7, plasma was isolated 6 h after final dose (dosed once or over five consecutive days), n=2. Plasma collected post dose were analyzed using a non GLP LC/MS/MS bioanalytical method to evaluate the compound concentration.

NEK7 = NEK7 degradation in spleen and PBMC in rabbit gout model (JESS); type: in vivo; details: rabbits, 10 mg/kg QD×7, harvested 2 h after the final dose
Procedure: MSU crystals were prepared by dissolving uric acid (Aladdin, cat #U105582) in boiling water (1 g in 200 mL with 6 mL of 1 N NaOH). PH value was adjusted to 7.2 by HCl. The solution was stirred and cooled to room temperature and stored at 4° C. overnight. The precipitate was filtered with filter paper and dried under low heat to obtain MSU crystals. New Zealand White rabbits received an intra-articular injection of 1 mL of MSU crystals (50 mg/mL) into both knees (MSU group) or PBS (as vehicle, control group). n=10 for MSU groups; n=6 for PBS group. […]
On Day 7, tissue was harvested 2 hours post final dose. […] Lysates were prepared in M-PER lysis buffer and protein concentration was measured using Pierce rapid gold BCA protein Assay Kit (Thermo Fisher) according to manufacturer's protocol. […]
(a) To determine NEK7 degradation, spleens and peripheral blood mononuclear cells (PBMC) were analyzed by JESS for NEK7 and normalized to α-Tubulin from five representative animals. (b) The degree of joint swelling was determined by caliper measurements at the indicated time points. (c) Rabbit bone tissue sections were stained and quantified for anti-CD31 immunohistochemistry. Results expressed as mean±SEM. […]

[3] = both sexes, monkey, plasma, po, 30 mg/kg
[4] = both sexes, non-human primate (NHP)

Cmax ([1]; both sexes, monkey) [ng/mL] | Tmax ([1]; both sexes, monkey) [h] | AUC0-24h [1, 3] [ng·h/mL] | AUC(0-t) [1, 3] [ng·h/mL] | Cmax [1, 4] [ng/mL] | Tmax [1, 4] [h] | tlast [1] [h] | IC50 (IL-1β; Homo sapiens, Macrophage) [nM] | IC50 (Caspase-1 activity; Homo sapiens, Macrophage, 24 h pre-treatment, LPS + MSU 6 h, eight donors) [nM] | inhibition of NLRP3-driven activation of human macrophages (Caspase-1 activity; LPS/MSU stimulation) | concentration at 6 h ([2]; Day 1, 6 h post final dose) [ng/mL] | concentration at 6 h ([2]; Day 5, 6 h post final dose) [ng/mL] | SMILES | IL-1β Imax (IL-1β) [%] | Caspase-1 activity Imax (Caspase-1 activity; 24 h pre-treatment, LPS + MSU 6 h, eight donors) [%] | degradation of NEK7 in spleen and PBMCs (NEK7)
6600 | 1.75 | 36600 | 27200 | 6600 | 1.75 | 8 | 1.1 | 1.6 | dose-dependent inhibition | 5.4 | 7.5 | Cc1cnc(C(C)(C)C(=O)NCc2cc(Cl)c(C3CCC(=O)NC3=O)c(Cl)c2)nc1 (stereo not drawn) [Compound 14, N-(3,5-dichloro-4-(2,6-dioxopiperidin-3-yl)benzyl)-2-methyl-2-(5-methylpyrimidin-2-yl)-propanamide] | 70 | 81 | –
– | – | – | – | – | – | – | – | – | – | – | – | CC(C)(C(=O)NCc1cc(Cl)c(C2CCC(=O)NC2=O)c(Cl)c1)c1ncc(C#N)cn1 (stereo not drawn) [Compound 16, 2-(5-cyanopyrimidin-2-yl)-N-(3,5-dichloro-4-(2,6-dioxopiperidin-3-yl)benzyl)-2-methyl-propanamide] | – | – | greater than 50%
